Measurements reported in ChEMBL document CHEMBL6121019, “Design, synthesis and biological evaluation of bisnoralcohol derivatives as novel IRF4 inhibitors for the treatment of multiple myeloma” (Eur J Med Chem, 2025).
pIC50: −log10 of the molar value. Activity calls are given as the source filed them. The calls are words filed in the database; no cut-off is given here.

Assays:
[1] = target: T1, Interferon regulatory factor 4 (Homo sapiens) (UniProt Q15306); assay: Induction of thermal stabilization of IRF4 in human NCI-H929 cells at 42 to 42.3 degree C by […] method; format: cell-based
T1 sequence (whole entry): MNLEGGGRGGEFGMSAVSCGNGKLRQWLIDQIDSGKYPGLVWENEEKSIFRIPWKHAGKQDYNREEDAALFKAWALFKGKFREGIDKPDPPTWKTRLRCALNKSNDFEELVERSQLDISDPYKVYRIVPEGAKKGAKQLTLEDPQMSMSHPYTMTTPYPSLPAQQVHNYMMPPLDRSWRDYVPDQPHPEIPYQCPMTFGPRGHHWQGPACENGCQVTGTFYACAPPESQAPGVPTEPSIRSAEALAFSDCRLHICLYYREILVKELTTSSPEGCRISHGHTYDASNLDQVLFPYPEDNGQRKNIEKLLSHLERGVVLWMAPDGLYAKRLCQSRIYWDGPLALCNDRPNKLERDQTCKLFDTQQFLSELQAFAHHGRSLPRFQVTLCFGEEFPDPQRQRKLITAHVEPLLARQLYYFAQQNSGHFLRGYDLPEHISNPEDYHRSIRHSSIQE

[2] = target: T2, Interferon regulatory factor 3 (Homo sapiens) (UniProt Q14653); assay: Induction of thermal stabilization of IRF3 in human NCI-H929 cells at 42 to 42.3 degree C by […] method; format: cell-based
T2 sequence (whole entry): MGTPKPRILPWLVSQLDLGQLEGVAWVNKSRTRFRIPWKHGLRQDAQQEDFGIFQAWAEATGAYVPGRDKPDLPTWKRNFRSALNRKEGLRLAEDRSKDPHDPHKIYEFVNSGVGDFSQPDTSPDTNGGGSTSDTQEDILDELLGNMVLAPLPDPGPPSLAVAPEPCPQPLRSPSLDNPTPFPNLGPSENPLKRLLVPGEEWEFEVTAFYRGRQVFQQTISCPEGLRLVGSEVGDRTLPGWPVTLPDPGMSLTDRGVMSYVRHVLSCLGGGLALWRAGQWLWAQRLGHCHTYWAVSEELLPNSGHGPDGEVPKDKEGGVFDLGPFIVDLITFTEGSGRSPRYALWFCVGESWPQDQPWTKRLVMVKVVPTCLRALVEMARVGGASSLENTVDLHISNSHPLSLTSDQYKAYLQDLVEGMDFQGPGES

[3] = system: MM.1R; assay: Effect on IRF4 expression in human MM1.R cells with siRNA mediated IRF4 knockdown by Western blot analysis; format: functional, cell-based
[4] = system: MM.1R; assay: Antiproliferative activity against human MM1.R cells with siRNA mediated IRF4#1 knockdown at 0.125 to 1 uM measured upto 5 days by MTS assay; format: functional, cell-based; conditions: dose 0.125-1 µM, time <= 5.0 day
[5] = system: MM.1R; assay: Downregulation of CANX expression in human MM1.R cells measured after 24 hrs by qRT-PCR analysis; format: functional, cell-based; conditions: dose 0.125-1 µM
[6] = system: MM.1R; assay: Downregulation of CMYC expression in human MM1.R cells measured after 24 hrs by qRT-PCR analysis; format: functional, cell-based; conditions: dose 0.125-1 µM
[7] = system: MM.1R; assay: Inhibition of AKT phosphorylation level in human MM1.R cells at 0.1 to 1 uM by Western blot analysis; format: functional, cell-based; conditions: dose 0.1-1 µM
[8] = system: MM.1R; assay: Inhibition of ERK phosphorylation level in human MM1.R cells at 0.1 to 1 uM by Western blot analysis; format: functional, cell-based; conditions: dose 0.1-1 µM
[9] = system: MM.1R; assay: Induction of DNA damage in human MM1.R cells assessed as increase in gammaH2AX expression at 0.1 to 1 uM by Western blot analysis; format: functional, cell-based; conditions: dose 0.1-1 µM
[10] = system: NCI-H929; assay: Induction of cell cycle arrest in human NCI-H929 cells assessed as accumulation of cells at G1 phase at 0..5 uM measured after 24 hrs by flow cytometry analysis (reference value: 54.12%); format: functional
[11] = system: NCI-H929; assay: Induction of cell cycle arrest in human NCI-H929 cells assessed as accumulation of cells at S phase at 0.25 uM measured after 24 hrs by flow cytometry analysis (reference value: 32.14%); format: functional
[12] = system: NCI-H929; assay: Antitumor activity against human NCI-H929 cells xenografted in Balb/C nude mouse model assessed as inhibition of tumor volume measured after 34 days; format: functional; conditions: dose 12.5-25 mg/kg, time 34.0 day
[13] = Toxicity in Balb/C nude mouse assessed as side effects at 12.5 to 25 mg/kg administered once daily and measured every three days for 34 days by H and E staining based analysis; format: organism-based; conditions: in vivo, 816 h, dose 12.5-25 mg/kg, time 34 day
[14] = system: RPMI-8226; assay: Antiproliferative activity against human RPMI-8226 cells assessed as inhibition of cell viability measured after 72 hrs by MTS assay; format: functional, cell-based; conditions: RPMI-8226, 72 h
[15] = Selectivity ratio IC50 for human RPMI-8226 cells to IC50 for human MM1.R cells; format: toxicity

COc1ccc(NC(=O)[C@@H](C)[C@H]2CC[C@H]3[C@@H]4C(=O)C=C5C(C)(C)C(=O)C(C#N)=C[C@]5(C)[C@H]4CC[C@]23C)cc1
Activity [1]: Active | Activity [2]: inactive | Activity [3]: Active | Activity [4]: Active | Activity [5]: Active | Activity [6]: Active | inhibition [7]: Active | inhibition [8]: Active | Activity [9]: Active | Activity [10]: 64.61% | Activity [11]: 25.49% | Activity [12]: Active; More Effective Than Lenalidomide | Activity [13]: Non-toxic | pIC50 [14]: 5.92 | Ratio IC50 [15]: 10.8
